In patent US20060142202A1, “Compositions and methods for targeted delivery of immune response modifiers” (3M Innovative Properties Company, priority 2000, published 2006):

melting point	Structure (SMILES)
127 to 128 °C	CCCc1nc2c(N)nc3cc(OCCCCCCNC(=O)c4ccc(N=[N+]=[N-])cc4O)ccc3c2s1 [IRM9, N-{6-[(4-Amino-2-propyl[1,3]thiazolo[4,5-c]quinolin-7-yl)oxy]hexyl}-4-azido-2-hydroxybenzamide]
203 to 204.6 °C	CCOCc1nc2c(N)nc3ccccc3c2n1CC(C)(C)NC(=O)CCC(=O)NN [IRM5, N-{2-[4-Amino-2-(ethoxymethyl)-1H-imidazo[4,5-c]quinolin-1-yl]-1,1-dimethylethyl}-4-hydrazino-4-oxobutanamide]
